# Results reported in patent US8999934B2, “Treatment of astrocytes-tumor cells inhibitors of endothelin receptors” (Board of Regents, The University of Texas System, priority 2009, dated 2015).
# Where “and” joins values, the source holds several entries; their conditions need not be identical. Identical values can stand only once.
# Columns and labels:
# [1] = tested on: human PC14Br4 lung cancer cells; type: cell-based; conditions: for protection of tumor cells against the drug by co-culture with astrocytes: cultured alone vs with astrocytes, Adriamycin 200 ng/ml, vinblastine 3 ng/ml, vincristine 8 ng/ml, 5-FU 500 ng/ml, cisplatinum 2.4 μg/ml
# Description: (§1) Astrocytes and NIH 3T3 fibroblasts were transfected with GFP genes as previously described (S5, S6). Target tumor cells, astrocytes, or 3T3 fibroblasts were harvested from a 60-70% confluent culture by a brief (2-minute) exposure to 0.25% trypsin in a 0.1% EDTA/PBS solution. The cells were dislodged by tapping the culture flasks briskly and resuspended in CMEM. The murine astrocytes, 3T3 fibroblasts, and tumor cells were plated alone or as co-culture at a tumor cell/astrocyte/3T3 cell ratio of 1:2 onto each of the 35-mm diameter well of the sterile 6-well tissue culture multi-well dish. The cells were allowed to adhere overnight in a humidified 37° C. incubator in an atmosphere of 6.4% carbon dioxide plus air. The cultures were then washed and incubated with fresh CMEM (negative control) or medium containing various concentrations of TAXOL® (Paclitaxel; NDC 0015-3476-30, Bristol-Myers Squibb, Princeton, N.J.) and other chemotherapeutic drugs (see below).
# (§2) To determine whether direct contact between tumor cells and astrocytes (or fibroblasts serving as control) was a prerequisite to produce induction of resistance to chemotherapy, we performed the co-culture assay using a Transwell-Boyden chamber, i.e., plating the tumor cells in the chamber and the ImmortoAstrocytes (or fibroblasts) in the well. […]
# In the second set of in vitro studies, we determined whether astrocyte-mediated induction of tumor cell resistance to chemotherapeutic drugs is transient or permanent. The human lung cancer PC14Br4 cells were co-cultured with either astrocytes or 3T3 fibroblasts in medium alone or medium containing 5 ng/ml paclitaxel. […] From parallel wells, we harvested surviving tumor cells and re-plated them on different monolayers of astrocytes or 3T3 cells. These co-cultures were of tumor cells first co-cultured with astrocytes and then with either astrocytes or 3T3 cells, or of tumor cells first cultured with 3T3 cells and then with either 3T3 cells or astrocytes. The second round of co-cultures then received media containing 5 ng/ml of paclitaxel. […]
# (§3) The supernatant medium containing floating cells were collected from each dish into a 15-ml conical centrifuge tube. The attached cells were harvested by briefly exposing the cells to 0.25% trypsin in a solution containing 0.1% EDTA/PBS. Cells were combined with the corresponding supernatant medium. The samples were pelleted by centrifugation at 100 g for 5 minutes. The pellets were resuspended in 10 ml of HBSS and further pelleted at 100 g for 5 minutes. The samples were resuspended by vortex and the cells fixed in 1 ml of 1% paraformaldehyde for 10 minutes at room temperature. The samples were then transferred into polypropylene microcentrifuge tubes and the fixed cells were washed in 1 ml of PBS and then pelleted at 10,000 g for 1 minute. The pellets were resuspended by vortex and the cells fixed overnight in 1 ml of ethanol at −20° C. The cells were subsequently vortexed and pelleted by a microcentrifuge at 10,000 g for 1 minute. The samples were then vortexed and the pellets resuspended and stained in 300 of propidium iodide (50 μg/ml; Cat. P4864, Sigma) containing RNAse (15 μg/ml; Cat. A7973, Promega, Madison, Wis.) for 20-30 minutes at 37° C.
# [2] = tested on: MDA231 breast cancer brain metastasis; assay: Survival study, experimental human MDA231 breast cancer brain metastasis; type: in vivo, nude mice; conditions: 5×10^3 MDA231 cells, treatment from day 14, Paclitaxel 5 mg/kg i.p. once weekly, individual mice
# Description: 5×10^3 MDA231 cells were injected according to the protocol in Experiment 10. Treatment began on day 14 after injection according to the protocol in Experiment 10. A Survival curve is drawn and the p-value derived to compare the statistical significance among treatment groups.
# Control (vehicle): daily oral administrations and once weekly i.p. injections.
# Paclitaxel (5 mg/kg): daily oral vehicle administrations and once weekly i.p. injection of Paclitaxel.
# ACT064992 (10 mg/kg): daily oral ACT064992 administrations and once weekly i.p. injections of Paclitaxel.
# [3] = tested on: MDA231 brain metastases; assay: In vivo tumor cell apoptosis, TUNEL of brain slices; set-up: species or system nude mice; conditions: Paclitaxel 8 mg/kg i.p. once per week, ACT-064992 50 mg/kg orally once per day, 28 days
# Description: Brain slices of mice from different treatment groups were analyzed by in situ Terminal deoxynucleotidyl transferase dUTP nick end labeling (TUNEL). Negoescu A, et al., J Histochem Cytochem. 1996 September; 44(9):959-68. […] FIG. 21A-C.
# [4] = tested on: MDA231 brain metastases; assay: In vivo tumor cell proliferation, CD31/Ki67 staining of brain slices; set-up: species or system nude mice; conditions: Paclitaxel 8 mg/kg i.p. once per week, ACT-064992 50 mg/kg orally once per day, 28 days
# Description: Representative brain slices from the four treatment groups were stained for CD31 (endothelial cell marker) and Ki67 (cell proliferation marker). […] FIGS. 20A, B, C and D, respectively.
# [5] = tested on: human MDA-MB-231 breast cancer cells; type: cell-based
# Description: as §1, §2, §3
# [6] = tested on: pAKT; assay: pAKT staining of MDA-MB-231 cells co-cultured with astrocytes and treated with Taxol; type: cell-based, human; conditions: MDA-MB-231 co-cultured with astrocytes; Taxol 15 ng/ml, 24 hours
# Description: In the next set of studies, 10,000 GFP-labeled MDA-MB-231 cells were co-cultured with 20,000 astrocytes in chamber slides. Twenty-four hours later, the cultures were treated for 24 hours with Taxol (15 ng/ml) and then stained for phosphorylated pAKT (4% PFA fixation).
# [7] = tested on: ETAR; assay: ETAR/phosphoserine immunostaining of brain slices; conditions: Paclitaxel 8 mg/kg i.p. once per week, ACT-064992 50 mg/kg orally once per day, 28 days
# Description: Female nude mice (10-12 weeks old) were injected in the internal carotid artery with 10,000 viable MDA231 cells. Two weeks after the injection when brain metastases were established, the mice were randomized into 4 treatment groups (n=10): 1) Control (injected with vehicle solution); 2) Paclitaxel (8 mg/kg administered intraperitoneally once per week); 3) ACT-064992 (50 mg/kg administered orally once per day); and 4) Combination of ACT-064992 and Paclitaxel. All mice were euthanized after 28 days of treatment and autopsied. The brains were collected for histologic study and immunohistochemistry.
# Brain slices of mice from the four treatment groups were immunostained for ETAR (red) and phosphoserine (green) colocalization produced orange-yellow color.
# [8] = tested on: MDA231 brain metastases; assay: In vivo tumor growth of MDA231 brain metastases (brain sections fixed and stained); set-up: species or system nude mice; conditions: Paclitaxel 8 mg/kg i.p. once per week, ACT-064992 50 mg/kg orally once per day, 28 days of treatment
# Description: To further validate the efficacy of endothelin receptor antagonist therapy for existing brain metastasis, the Inventors performed exemplary in vivo experiments using mice. Nude mice were injected with 10,000 viable MDA231 cells mice by way of the internal carotid artery. […] The Inventors thus started treatments at this time point.
# The treatment groups at two weeks post injection were: Control (vehicle) (FIG. […] 18B); ACT-064992 50 mg/kg, p.o. daily (FIG. […] 18D).
# All mice were killed on day 28 of treatment. Brain sections were fixed and stained. Brain metastases were evaluated visually. Exemplary specimens are shown in FIG. 18A-D at the same magnifications.
# [9] = tested on: tumor cells co-cultured with astrocytes; assay: In vitro cell based chemoresistance assay with endothelin receptor antagonists (overall statement); conditions: higher dose Bosentan
# Description: Using the in vitro cell based chemoresistance assay scheme described above, the Inventors tested two endothelin receptor antagonists having dual ETAR and ETBR affinity to assess the degree of astrocyte-mediated protection against the cytotoxic effects of the chemotherapy agent.
# [10] = tested on: ETAR/ETBR; conditions: requires ⅓ the dose; cited from earlier work
# [11] = tested on: pAKT; assay: Expression of survival factor pAKT in co-cultures of astrocytes and tumor cells; type: cell-based; conditions: ACT-064992 added to co-cultures of astrocytes and tumor cells
# Description: (§4) ETR antagonists as shown above were ineffective as a single agent chemotherapy. This negative result made the dramatic effect seen with ETR antagonists as a component of combination therapies highly unexpected. In co-culture experiments, cell culture ratios were 1:2 tumor cell:astrocyte cell (50, 000:100,000), and treatments were using paclitaxel (TAXOL®) (6 ng/ml) and/or ACT-064992 (100 nM) for 48 hours (FIG. 15; *p<0.01). For the control experiments using MDA-MB-231 cells, the same astrocyte-mediated protection from paclitaxel occurred as in prior experiments. There were two surprising results from these combination experiments.
# [12] = tested on: pMAPK; assay: Expression of survival factor pMAPK in co-cultures of astrocytes and tumor cells; type: cell-based; conditions: ACT-064992 added to co-cultures of astrocytes and tumor cells
# Description: as §4
# [13] = 100 nM, 48 hours, alone or with astrocytes or with 3T3 fibroblasts
# [14] = tumor cell-astrocyte co-cultures 1:2, paclitaxel 6 ng/ml, ACT-064992 100 nM, 48 hours
smiles,measurement,setting,value
N.N.[Cl][Pt][Cl] [cisplatinum],protection of tumor cells against the drug by co-culture with astrocytes,[1]; paclitaxel 5 ng/ml,significant (P<0.01) protection
CC[C@]1(O)C[C@H]2CN(CCc3c([nH]c4ccccc34)[C@@](C(=O)OC)(c3cc4c(cc3OC)N(C=O)[C@H]3[C@@](O)(C(=O)OC)[C@H](OC(C)=O)[C@]5(CC)C=CCN6CC[C@]43[C@@H]65)C2)C1 [vincristine],protection of tumor cells against the drug by co-culture with astrocytes,[1]; paclitaxel 5 ng/ml,significant (P<0.01) protection
CC[C@]1(O)C[C@@H]2CN(CCc3c([nH]c4ccccc34)[C@@](C(=O)OC)(c3cc4c(cc3OC)N(C)[C@H]3[C@@](O)(C(=O)OC)[C@H](OC(C)=O)[C@]5(CC)C=CCN6CC[C@]43[C@@H]65)C2)C1 [vinblastine],protection of tumor cells against the drug by co-culture with astrocytes,[1]; paclitaxel 5 ng/ml,significant (P<0.01) protection
CC(=O)O[C@H]1C(=O)[C@@]2(C)[C@H]([C@H](OC(=O)c3ccccc3)[C@]3(O)C[C@H](OC(=O)[C@H](O)[C@@H](NC(=O)c4ccccc4)c4ccccc4)C(C)=C1C3(C)C)[C@]1(OC(C)=O)CO[C@@H]1C[C@@H]2O [paclitaxel],Day of death (after treatment),[2]; oral vehicle daily,49 day and 53 day and 60 day and 63 day and 74 day (2×) and 78 day
same,apoptotic (TUNEL) cells in brain,[3],few to no apoptotic cells
same,proliferating (Ki67) cells in brain,[4],a large number of proliferating cells
same,protection of tumor cells against the drug by co-culture with astrocytes,[1]; paclitaxel 5 ng/ml,significant (P<0.01) protection
same,reduction of relative apoptotic index of tumor cells by culturing with astrocytes (increased chemoresistance),"[1]; paclitaxel 5 ng/ml, 72 hours, co-culture with astrocytes (not 3T3 fibroblasts), mean±S.D., P<0.05",61.8±6.7%
same,reduction of relative apoptotic index of tumor cells by culturing with astrocytes (increased chemoresistance),"[5]; paclitaxel 5 ng/ml, 72 hours, co-culture with astrocytes (not 3T3 fibroblasts), mean±S.D., P<0.01",58.3 ± 8.9%
same,pAKT expression by tumor cells,[6],high levels of pAKT
same,phosphorylation of ETAR in brain,[7],expressed phosphorylated ETAR
same,brain metastatic tumors (histology),[8],well defined metastatic tumors
O=c1[nH]cc(F)c(=O)[nH]1 [5-FU],protection of tumor cells against the drug by co-culture with astrocytes,[1]; paclitaxel 5 ng/ml,significant (P<0.01) protection
COc1ccccc1Oc1c(NS(=O)(=O)c2ccc(C(C)(C)C)cc2)nc(-c2ncccn2)nc1OCCO [Bosentan],results of Bosentan experiments compared with the ACT-064992 experiments,[9],analogous results
COc1cccc2c1C(=O)c1c(O)c3c(c(O)c1C2=O)C[C@@](O)(C(=O)CO)C[C@@H]3O[C@H]1C[C@H](N)[C@H](O)[C@H](C)O1 [Adriamycin],protection of tumor cells against the drug by co-culture with astrocytes,[1]; paclitaxel 5 ng/ml,significant (P<0.01) protection
"CCCNS(=O)(=O)Nc1ncnc(OCCOc2ncc(Br)cn2)c1-c1ccc(Br)cc1 [ACT-064992, N-[5-(4-bromophenyl)-6-(2-(5-bromopyrimidin-2-yloxy)ethoxy)-pyrimidin-4-yl]-N′-propylaminosulfonamide]",pharmaceutical activity relative to Bosentan,[10],roughly three times more pharmaceutically active than Bosentan
same,expression of survival factor pAKT,[11],inhibited the expression
same,Day of death (after treatment),[2]; ACT064992 10 mg/kg oral daily,51 days and 63 days and 68 days and 75 days and 78 days and 82 days
same,apoptotic (TUNEL) cells in brain,[3],few to no apoptotic cells
same,proliferating (Ki67) cells in brain,[4],a large number of proliferating cells
same,cytotoxic effects (degree of apoptosis),[1]; [13],did not produce any measurable cytotoxic effects
same,cytotoxic effects (degree of apoptosis),[5]; [13],did not produce any measurable cytotoxic effects
same,effect on astrocyte-mediated protection from paclitaxel,[5]; [14],negate the astrocyte-mediated protection from paclitaxel
same,efficacy of paclitaxel compared to control experiments without astrocytes (super-sensitization),[5]; [14],enhanced the efficacy of paclitaxel
same,phosphorylation of ETAR in brain,[7],prevented phosphorylation of the ETAR
same,expression of survival factor pMAPK,[12],inhibited the expression
same,brain metastatic tumors (histology),[8],well defined metastatic tumors
